Earlier results in patent publication US20230129072A1, “SYSTEM, PRODUCT AND METHOD FOR MAINTAINING THE VAGINAL MICROBIOME” (VAGINAL BIOME SCIENCE, INC., priority 2021, published 2023).

Tests used:
[1] = system: herpes simplex virus (HSV-2); conditions: after a single exposure

CC(O)CO (stereo not drawn) [propylene glycol]
susceptibility to herpes simplex virus (HSV-2) [1]: markedly increased susceptibility

nonoxynol-9 [Example N9]
toxicity to beneficial Lactobacilli spp. (Lactobacilli spp.): toxic

polyethylene glycol (PEG-8)
susceptibility to herpes simplex virus (HSV-2) [1]: markedly increased susceptibility
